Converted amounts (≈) assume the structure as drawn. Counter-ions that a name gives are not always drawn. Like-named read-outs stand apart in the source and are kept apart here.
Legend:
[1] = Solubility of Compound (1) forms in non-aqueous excipients (HPLC of filtrate); format: physicochemical; conditions: room temperature, up to 4 days
Protocol: (§1) The solubility of Compound (1), as either Type A or the sodium salt form, was investigated in various non-aqueous solvents. The solutions were prepared by addition of excess Compound (1) to 0.25 ml to 1.0 ml of excipient in amber screw cap vials with Teflon lined caps. The samples were allowed to rotate at room temperature for up to 4 days. Sampling was done by centrifuging (14,000 rpm on the Eppendorf model 5415C table top centrifuge) and filtering through a 0.45 μm PVDF filter. The filtrate was subject to HPLC analysis for determining the solubility. HPLC analysis was conducted with an to Agilent 1100 using gradient or isocratic conditions. Both methods used acetonitrile/water (each with 0.1% Triflouroacetic Acid) and an ACE C-18 stationary phase with column heating maintained at 40-45° C. The wavelength of detection was set at 220 nm or 264 nm Wet solids were collected and analyzed for form change (stability) by XRPD.

[2] = Form change (stability) study of slurried solids by XRPD; format: physicochemical; conditions: slurried in either ethanol or propylene glycol
Protocol: as §1
XRPD analyses for the form change studies were conducted on a Bruker AXS X-Ray Powder Diffractometer Model D8 Discover or D8 Advance, available from Bruker AXS, Inc. of Madison, Wis., using CuKα radiation. The tube power was set to either 40 kV and 40 mA or 40 kV and 30 mA. […]

Solubility ([1]; Capmul MCM (non-aqueous excipient), oil or lipid, thermodynamic from solid, excipient Capmul MCM, read-out: Solubility)	Solubility ([1]; Capmul PG8 (non-aqueous excipient), oil or lipid, thermodynamic from solid, excipient Capmul PG8, read-out: Solubility)	Solubility ([1]; Labrasol (non-aqueous excipient), oil or lipid, thermodynamic from solid, excipient Labrasol, read-out: Solubility)	Solubility ([1]; PEG 400 (non-aqueous excipient), organic solvent or mixture, thermodynamic from solid, excipient PEG 400, read-out: Solubility)	Solubility ([1]; excipient Ethanol)	Solubility ([1]; excipient Transcutol P)	Solubility ([1]; propylene glycol (non-aqueous excipient), organic solvent or mixture, thermodynamic from solid, excipient Propylene Glycol, read-out: Solubility)	Form stability (change in XRPD pattern of remaining solid phase) ([2]; listed as crystalline sodium salt form of Compound (1))	Solubility ([1]; excipient Capmul MCM)	Solubility ([1]; excipient Capmul PG8)	Solubility ([1]; excipient Labrasol)	Solubility ([1]; excipient PEG 400)	Form stability (change in XRPD pattern of remaining solid phase) ([2]; listed as Type A form of Compound (1))	Compound
262.5 ± 2.6 mg/mL	< 169 mg/mL	175 ± 11.8 mg/mL	234 ± 34 mg/mL	187.0 ± 23.9 mg/mL	430.6 ± 14.7 mg/mL	> 468 mg/mL	no change in the XRPD pattern						C=C[C@@H]1C[C@]1(NC(=O)[C@@H]1C[C@H](Oc2cc(-c3csc(NC(=O)C(C)C)n3)nc3c(Br)c(OC)ccc23)CN1C(=O)[C@@H](NC(=O)OC1CCCC1)C(C)(C)C)C(=O)O [Compound (1) Na salt]
				0.9 ± 0.1 mg/mL (≈ 1.03 mM)	24.3 ± 0.3 mg/mL (≈ 27.9 mM)			220.6 ± 7.4 mg/mL (≈ 254 mM)	172.6 ± 8.3 mg/mL (≈ 198 mM)	146.7 ± 5.1 mg/mL (≈ 169 mM)	136.8 ± 3.2 mg/mL (≈ 157 mM)	clear form change	C=C[C@@H]1C[C@]1(NC(=O)[C@@H]1C[C@H](Oc2cc(-c3csc(NC(=O)C(C)C)n3)nc3c(Br)c(OC)ccc23)CN1C(=O)[C@@H](NC(=O)OC1CCCC1)C(C)(C)C)C(=O)O [Type A of Compound (1)]
